Here are results for 21 compounds from article PMC9706563, “Development of Macrocyclic PRMT5–Adaptor Protein Interaction Inhibitors” (Journal of Medicinal Chemistry, 2022).

Read-outs that look alike come from different tables or passages of the source. Numbered stars: 1 amine (or outer) side, 2 acyl side, 3 side chain; on linkers, the order of the positions; unused ones are H or OH. Bridge positions count the residues as written; N and C are the ends. Square brackets hold non-standard residues; d marks the D form. Peptide text beside a SMILES is read from it. * marks the point of attachment. FITC = O=C1OC2(c3ccc(O)cc3Oc3cc(O)ccc32)c2ccc(NC(=S)*)cc21; dNva(5-ylidene) = O=C([C@@H](CCC=[*:3])N[*:1])[*:2]; 2Nal = N[C@@H](Cc1ccc2ccccc2c1)C(=O)O; NMeF = CN[C@@H](Cc1ccccc1)C(=O)O; hPhe = N[C@@H](CCc1ccccc1)C(=O)O; dAllylGly = C=CC[C@@H](N)C(=O)O; NMeD = CN[C@@H](CC(=O)O)C(=O)O; Abu = CC[C@H](N)C(=O)O; Sar = CNCC(=O)O

The target in the assay is T1, PRMT5-MEP50 (Homo sapiens, UniProt O14744).
T1 construct: The compounds were tested by means of FP with the full-length PRMT5-MEP50 complex; made in house
The assay can be described thus: Direct binding fluorescence polarization (FP) assay of FITC-labeled peptides. (In general: Fluorescence polarisation rises when a labelled molecule tumbles more slowly, as on binding a larger partner.)

Setting [1] is: supplementary CSV, read-out: PRMT5-MEP50 Kd.
The mark [2] stands for this setting: FITC-labeled peptide 1 nM, PRMT5-MEP50 titrated, read-out: KD.

T1 sequence (O14744 whole entry): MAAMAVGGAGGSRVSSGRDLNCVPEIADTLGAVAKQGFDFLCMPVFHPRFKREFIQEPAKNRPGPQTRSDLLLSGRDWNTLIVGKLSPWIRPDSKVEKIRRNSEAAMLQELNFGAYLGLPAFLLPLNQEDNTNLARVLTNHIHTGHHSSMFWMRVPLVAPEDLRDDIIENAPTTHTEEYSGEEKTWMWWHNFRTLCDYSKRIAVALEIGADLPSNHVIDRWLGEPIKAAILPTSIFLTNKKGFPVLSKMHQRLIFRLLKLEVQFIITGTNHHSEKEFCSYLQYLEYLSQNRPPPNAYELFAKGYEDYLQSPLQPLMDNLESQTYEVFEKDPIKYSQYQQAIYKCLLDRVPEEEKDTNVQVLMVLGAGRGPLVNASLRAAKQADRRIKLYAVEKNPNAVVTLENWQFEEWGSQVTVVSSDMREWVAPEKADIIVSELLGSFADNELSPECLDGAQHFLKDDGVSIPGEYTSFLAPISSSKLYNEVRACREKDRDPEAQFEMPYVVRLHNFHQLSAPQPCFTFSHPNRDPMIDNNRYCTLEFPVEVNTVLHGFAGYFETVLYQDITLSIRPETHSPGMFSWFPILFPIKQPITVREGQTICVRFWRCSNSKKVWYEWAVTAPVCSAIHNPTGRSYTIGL
T1 sequence (Q9BQA1 whole entry partner): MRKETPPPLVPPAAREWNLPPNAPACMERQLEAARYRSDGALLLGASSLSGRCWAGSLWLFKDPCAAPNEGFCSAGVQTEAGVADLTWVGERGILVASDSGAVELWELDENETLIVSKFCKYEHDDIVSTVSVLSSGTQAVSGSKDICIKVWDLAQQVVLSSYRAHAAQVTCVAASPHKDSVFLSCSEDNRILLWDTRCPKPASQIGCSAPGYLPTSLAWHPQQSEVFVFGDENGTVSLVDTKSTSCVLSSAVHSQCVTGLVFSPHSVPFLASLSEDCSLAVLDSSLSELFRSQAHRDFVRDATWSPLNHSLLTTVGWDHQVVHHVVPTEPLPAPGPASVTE
Procedure: The assay was performed in a buffer of 50 mM 4-(2-hydroxyethyl)-1-piperazineethanesulfonic acid (HEPES), 250 mM NaCl, 1 mM tris(2-carboxyethyl)phosphine (TCEP), and 0.01% (v/v) Tween 20, pH 8.0, in black, 384-well plates with a total volume of 10 μL per well. […] The plates were incubated at room temperature for 1 to 2 h and analyzed on a plate reader using 485 nm excitation and 535 nm emission wavelength. The assay was performed in triplicate.

In general, Kd refers to the free concentration of one partner at which half of the binding sites on the other are occupied at equilibrium, for simple one-to-one binding. For the compound `CC(=O)N[C@H](C(=O)N1CCC[C@H]1C(=O)N[C@@H]1CCCCCC[C@H](C(=O)N[C@@H](CC(=O)O)C(=O)N[C@@H](C)C(=O)N[C@@H](CC(=O)O)C(=O)N[C@@H](CCCCNC(=S)Nc2ccc3c(c2)C(=O)OC32c3ccc(O)cc3Oc3cc(O)ccc32)C(N)=O)NC(=O)[C@H](Cc2ccccc2)NC(=O)[C@H](CCC(N)=O)NC1=O)C(C)C` [Compound 27], the Kd under setting [1] is over 2 µM.
Turning to `CC(C)[C@H](NC(=O)[C@H](CCCNC(=N)N)NC(=O)[C@H](CO)NC(=O)COCCOCCNC(=S)Nc1ccc2c(c1)C(=O)OC21c2ccc(O)cc2Oc2cc(O)ccc21)C(=O)N[C@H](C(=O)N1CCC[C@H]1C(=O)N[C@@H]1CC=CC[C@H](C(=O)N[C@@H](CC(=O)O)C(=O)N[C@@H](C)C(=O)N[C@@H](CC(=O)O)C(N)=O)NC(=O)[C@H](Cc2ccccc2)NC(=O)[C@H](CCC(N)=O)NC1=O)C(C)C` (single isomer, unassigned) [15 (isomer 1)], the Kd under setting [1] is over 2 µM.
As for `CC[C@H](NC(=O)[C@H](CC(=O)O)NC(=O)[C@H](CC(=O)O)NC(=O)[C@H](Cc1ccccc1)NC(=O)[C@H](CCC(N)=O)NC(=O)CNC(=O)[C@@H]1CCCN1C(=O)[C@@H](NC(C)=O)C(C)C)C(=O)N[C@@H](CC(=O)O)C(=O)N[C@@H](CCCCNC(=S)Nc1ccc2c(c1)C(=O)OC21c2ccc(O)cc2Oc2cc(O)ccc21)C(N)=O` [Compound S27] (Ac-VPGQFDD[Abu]DK(FITC)-NH2), the Kd under setting [1] was over 1 µM.
Take `CC(=O)N[C@@H](CCc1ccccc1)C(=O)N1CCC[C@H]1C(=O)NCC(=O)N[C@@H](CCC(N)=O)C(=O)N[C@@H](Cc1ccccc1)C(=O)N[C@@H](CC(=O)O)C(=O)N[C@@H](CC(=O)O)C(=O)N[C@@H](C)C(=O)N[C@@H](CC(=O)O)C(=O)N[C@@H](CCCCNC(=S)Nc1ccc2c(c1)C(=O)OC21c2ccc(O)cc2Oc2cc(O)ccc21)C(N)=O` [Compound S4] (Ac-[hPhe]PGQFDDADK(FITC)-NH2): under setting [1], the Kd was over 1 µM.
For `CC(C)[C@H](NC(=O)[C@H](CCCNC(=N)N)NC(=O)[C@H](CO)NC(=O)COCCOCCNC(=S)Nc1ccc2c(c1)C(=O)OC21c2ccc(O)cc2Oc2cc(O)ccc21)C(=O)N[C@H](C(=O)N1CCC[C@H]1C(=O)N[C@@H]1CCCC[C@H](C(=O)N[C@@H](CC(=O)O)C(=O)N[C@@H](C)C(=O)N[C@@H](CC(=O)O)C(N)=O)NC(=O)[C@H](Cc2ccccc2)NC(=O)[C@H](CCC(N)=O)NC1=O)C(C)C` [Compound 16], the equilibrium dissociation constant (Kd) under setting [1] is over 2 µM.
With `CC(=O)N[C@H](C(=O)N1CCC[C@H]1C(=O)NCC(=O)N[C@@H](CCC(N)=O)C(=O)N[C@@H](Cc1ccccc1)C(=O)N[C@@H](CC(=O)O)C(=O)N[C@@H](CC(=O)O)C(=O)N[C@@H](C)C(=O)N[C@@H](CCC(=O)O)C(=O)N[C@@H](CCCCNC(=S)Nc1ccc2c(c1)C(=O)OC21c2ccc(O)cc2Oc2cc(O)ccc21)C(N)=O)C(C)C` [Compound 33] (Ac-VPGQFDDAEK(FITC)-NH2), under setting [1], the dissociation constant (Kd) was 0.531 ± 0.023 µM.
Turning to `CC(=O)N[C@H](C(=O)N1CCC[C@H]1C(=O)NCC(=O)N[C@@H](CCC(N)=O)C(=O)N[C@@H](CCc1ccccc1)C(=O)N[C@@H](CC(=O)O)C(=O)N[C@@H](CC(=O)O)C(=O)N[C@@H](C)C(=O)N[C@@H](CC(=O)O)C(=O)N[C@@H](CCCCNC(=S)Nc1ccc2c(c1)C(=O)OC21c2ccc(O)cc2Oc2cc(O)ccc21)C(N)=O)C(C)C` [Compound S21] (Ac-VPGQ[hPhe]DDADK(FITC)-NH2), the Kd under setting [1] was over 1 µM.
Regarding `CC(=O)N[C@H](C(=O)N1CCC[C@H]1C(=O)NCC(=O)N[C@@H](CCC(N)=O)C(=O)N(C)[C@@H](Cc1ccccc1)C(=O)N[C@@H](CC(=O)O)C(=O)N[C@@H](CC(=O)O)C(=O)N[C@@H](C)C(=O)N[C@@H](CC(=O)O)C(=O)N[C@@H](CCCCNC(=S)Nc1ccc2c(c1)C(=O)OC21c2ccc(O)cc2Oc2cc(O)ccc21)C(N)=O)C(C)C` [Compound 47, Ac-VPGQ-(N-Me)F-DDADK(Fitc)-NH2] (Ac-VPGQ[NMeF]DDADK(FITC)-NH2), the equilibrium dissociation constant (Kd) under setting [1] was over 2 µM.
For `CC(=O)N[C@H](C(=O)N1CCC[C@H]1C(=O)NCC(=O)N[C@@H](CCC(N)=O)C(=O)N[C@@H](Cc1ccc2ccccc2c1)C(=O)N[C@@H](CC(=O)O)C(=O)N[C@@H](CC(=O)O)C(=O)N[C@@H](C)C(=O)N[C@@H](CC(=O)O)C(=O)N[C@@H](CCCCNC(=S)Nc1ccc2c(c1)C(=O)OC21c2ccc(O)cc2Oc2cc(O)ccc21)C(N)=O)C(C)C` [Compound S24] (Ac-VPGQ[2Nal]DDADK(FITC)-NH2), under setting [1], the Kd was over 1 µM.
As for `CC(C)[C@H](NC(=O)COCCOCCNC(=S)Nc1ccc2c(c1)C(=O)OC21c2ccc(O)cc2Oc2cc(O)ccc21)C(=O)N1CCC[C@H]1C(=O)NCC(=O)N[C@@H](CCC(N)=O)C(=O)N[C@@H](Cc1ccccc1)C(=O)N[C@@H](CC(=O)O)C(=O)N[C@@H](CC(=O)O)C(=O)N[C@@H](C)C(=O)N[C@@H](CC(=O)O)C(N)=O` [Compound 28] (HELM PEPTIDE1{[O=C1OC2(c3ccc(O)cc3Oc3cc(O)ccc32)c2ccc(NC(=S)[*:2])cc21].[O=C(COCCOCCN[*:1])[*:2]].V.P.G.Q.F.D.D.A.D.[am]}$$$$V2.0), the dissociation constant (Kd) under setting [2] amounted to 0.905 ± 0.104 µM.
Regarding `CC(C)[C@H](NC(=O)[C@H](CCCNC(=N)N)NC(=O)[C@H](CO)NC(=O)COCCOCCNC(=S)Nc1ccc2c(c1)C(=O)OC21c2ccc(O)cc2Oc2cc(O)ccc21)C(=O)N[C@H](C(=O)N1CCC[C@H]1C(=O)N[C@@H]1CNC(=O)C[C@H](C(=O)N[C@@H](CC(=O)O)C(=O)N[C@@H](C)C(=O)N[C@@H](CC(=O)O)C(N)=O)NC(=O)[C@H](Cc2ccccc2)NC(=O)[C@H](CCC(N)=O)NC1=O)C(C)C` [Compound 9], the Kd under setting [1] was over 2 µM.
As to `CC(=O)N[C@H](C(=O)N1CCC[C@H]1C(=O)N(C)CC(=O)N[C@@H](CCC(N)=O)C(=O)N[C@@H](Cc1ccccc1)C(=O)N[C@@H](CC(=O)O)C(=O)N[C@@H](CC(=O)O)C(=O)N[C@@H](C)C(=O)N[C@@H](CC(=O)O)C(=O)N[C@@H](CCCCNC(=S)Nc1ccc2c(c1)C(=O)OC21c2ccc(O)cc2Oc2cc(O)ccc21)C(N)=O)C(C)C` [Compound 48, Ac-VP-(N-Me)G-QFDDADK(Fitc)-NH2] (Ac-VP[Sar]QFDDADK(FITC)-NH2), under setting [1], the dissociation constant (Kd) was over 2 µM.
Still for that read-out and setting: the figure for `CC(=O)N[C@@H](CC(=O)O)C(=O)N1CCC[C@H]1C(=O)NCC(=O)N[C@@H](CCC(N)=O)C(=O)N[C@@H](Cc1ccccc1)C(=O)N[C@@H](CC(=O)O)C(=O)N[C@@H](CC(=O)O)C(=O)N[C@@H](C)C(=O)N[C@@H](CC(=O)O)C(=O)N[C@@H](CCCCNC(=S)Nc1ccc2c(c1)C(=O)OC21c2ccc(O)cc2Oc2cc(O)ccc21)C(N)=O` [Compound S6] (Ac-DPGQFDDADK(FITC)-NH2) is over 1 µM.
As for `CC(=O)N[C@H](C(=O)N1CCC[C@H]1C(=O)N[C@@H]1CCCCC[C@@H](C(=O)N[C@@H](CC(=O)O)C(=O)N[C@@H](C)C(=O)N[C@@H](CC(C(=O)O)C(=O)O)C(=O)N[C@@H](CCCCNC(=S)Nc2ccc3c(c2)C(=O)OC32c3ccc(O)cc3Oc3cc(O)ccc32)C(N)=O)NC(=O)[C@H](Cc2ccc([N+](=O)[O-])cc2)NC(=O)[C@H](CCC(N)=O)NC1=O)C(C)C` [Compound 50], the Kd under setting [2] was determined as 0.089 ± 0.011 µM.
Take `CC(=O)N[C@H](C(=O)N1CCC[C@H]1C(=O)NCC(=O)N[C@@H](CCC(N)=O)C(=O)N[C@@H](Cc1ccccc1)C(=O)N[C@@H](CC(=O)O)C(=O)N(C)[C@@H](CC(=O)O)C(=O)N[C@@H](C)C(=O)N[C@@H](CC(=O)O)C(=O)N[C@@H](CCCCNC(=S)Nc1ccc2c(c1)C(=O)OC21c2ccc(O)cc2Oc2cc(O)ccc21)C(N)=O)C(C)C` [Compound 46, Ac-VPGQFD-(N-Me)D-ADK(Fitc)-NH2] (Ac-VPGQFD[NMeD]ADK(FITC)-NH2): the equilibrium dissociation constant (Kd) under setting [1] is over 2 µM.
For `CC(=O)N[C@H](C(=O)N1CCC[C@H]1C(=O)NCC(=O)N[C@@H](CCC(N)=O)C(=O)N[C@@H](Cc1ccccc1)C(=O)N[C@@H](CC(=O)O)C(=O)N[C@@H](CC(=O)O)C(=O)N[C@@H](C)C(=O)N[C@@H](Cc1ccc(O)cc1)C(=O)N[C@@H](CCCCNC(=S)Nc1ccc2c(c1)C(=O)OC21c2ccc(O)cc2Oc2cc(O)ccc21)C(N)=O)C(C)C` [Compound S32] (Ac-VPGQFDDAYK(FITC)-NH2), the Kd under setting [1] was over 1 µM.
Turning to `CC(=O)N[C@H](C(=O)N1CCC[C@H]1C(=O)NCC(=O)N[C@@H](CCC(N)=O)C(=O)N[C@@H](Cc1ccccc1)C(=O)N[C@@H](CC(=O)O)C(=O)N[C@@H](CC(=O)O)C(=O)N[C@@H](CO)C(=O)N[C@@H](CC(=O)O)C(=O)N[C@@H](CCCCNC(=S)Nc1ccc2c(c1)C(=O)OC21c2ccc(O)cc2Oc2cc(O)ccc21)C(N)=O)C(C)C` [Compound S31] (Ac-VPGQFDDSDK(FITC)-NH2), the equilibrium dissociation constant (Kd) under setting [1] is over 1 µM.
For the compound `CC(=O)N[C@H](C(=O)N1CCC[C@H]1C(=O)NC1CCCCC[C@@H](C(=O)N[C@@H](CC(=O)O)C(=O)N[C@@H](C)C(=O)N[C@@H](CC(=O)O)C(=O)N[C@@H](CCCCNC(=S)Nc2ccc3c(c2)C(=O)OC32c3ccc(O)cc3Oc3cc(O)ccc32)C(N)=O)NC(=O)[C@H](Cc2ccccc2)NC(=O)[C@H](CCC(N)=O)NC1=O)C(C)C` (stereo in doubt) [Compound 21], under setting [2], the dissociation constant Kd is 0.43 ± 0.096 µM.
Regarding `CC(=O)N[C@H](C(=O)N1CCC[C@H]1C(=O)N[C@@H]1CCC=CC[C@H](C(=O)N[C@@H](CC(=O)O)C(=O)N[C@@H](C)C(=O)N[C@@H](CC(=O)O)C(=O)N[C@@H](CCCCNC(=S)Nc2ccc3c(c2)C(=O)OC32c3ccc(O)cc3Oc3cc(O)ccc32)C(N)=O)NC(=O)[C@H](Cc2ccccc2)NC(=O)[C@H](CCC(N)=O)NC1=O)C(C)C` [Compound 24] (Ac-VP[dNva(5-ylidene)]QF[dAllylGly]DADK(FITC)-NH2; staple 3-6), the Kd under setting [1] is over 2 µM.
With `CC(=O)N[C@H](C(=O)N1CCC[C@H]1C(=O)NCC(=O)N[C@@H](CCC(N)=O)C(=O)N[C@@H](Cc1ccccc1)C(=O)N[C@@H](CC(=O)O)C(=O)N[C@@H](CC(=O)O)C(=O)N[C@@H](C)C(=O)N(C)[C@@H](CC(=O)O)C(=O)N[C@@H](CCCCNC(=S)Nc1ccc2c(c1)C(=O)OC21c2ccc(O)cc2Oc2cc(O)ccc21)C(N)=O)C(C)C` [Compound 44] (Ac-VPGQFDDA[NMeD]K(FITC)-NH2), the equilibrium dissociation constant (Kd) runs as follows: under setting [2], 0.6 ± 0.1 µM; under setting [1], 0.587 ± 0.142 µM.
`CC(=O)N[C@H](C(=O)N1CCC[C@H]1C(=O)N[C@@H]1CC=CCC[C@H](C(=O)N[C@@H](CC(=O)O)C(=O)N[C@@H](C)C(=O)N[C@@H](CC(=O)O)C(=O)N[C@@H](CCCCNC(=S)Nc2ccc3c(c2)C(=O)OC32c3ccc(O)cc3Oc3cc(O)ccc32)C(N)=O)NC(=O)[C@H](Cc2ccccc2)NC(=O)[C@H](CCC(N)=O)NC1=O)C(C)C` [Compound 23]: under setting [1], the Kd is over 2 µM.
